System: 4EBP1
Assay: 4EBP1 phosphorylation in HCMV-infected fibroblasts, Western blot
Type: cell-based, human
Details: rapamycin 20 nM, Torin1 250 nM; 3 PFU/cell
Procedure: FIG. 4. Rapamycin-resistant mTOR activity is required for 4EBP1 phosphorylation and eIF4F complex integrity during HCMV infection. Serum-starved confluent human fibroblasts were infected with HCMV at a multiplicity of 3 PFU/cell. […] (A) At 48 hpi the phosphorylation status of mTORC1 targets was assessed by Western blot assay by using antibodies to phosphorylated targets (4EBP1-PT^37/46 and rpS6-PS^235/6) and total proteins. Tubulin was assayed as a loading control. (B) Same as above (A) except that cells were harvested at the indicated times. (C and D) After mock infection (M) or infection with HCMV (WT) at a multiplicity of 3 PFU/cell, cultures were harvested at the indicated times. Equivalent amounts of protein from each sample were incubated with m^7GTP-Sepharose, and the isolated protein complexes were analyzed by Western blotting using the indicated antibodies to the eIF4F complex and 4EBP1. In all cases the results are representative of at least two independent experiments. lys, lysate.
HCMV infection induces mTORC1 activity, but the phosphorylation of mTORC1 targets is differentially sensitive to the mTORC1 inhibitor rapamycin. […] Total 4EBP1, rpS6, and tubulin levels were monitored to control for protein recovery. […]

CCC(=O)N1CCN(c2ccc(-n3c(=O)ccc4cnc5ccc(-c6cnc7ccccc7c6)cc5c43)cc2C(F)(F)F)CC1 [Torin1]
phosphorylation of 4EBP1 during HCMV infection: substantially blocked

— patent US20180185374A1, “INHIBITORS OF MTOR KINASE AS ANTI-VIRAL AGENTS” (THE TRUSTEES OF PRINCETON UNIVERSITY, priority 2009, published 2018)
